{"source": "DBAASP", "test_in_all_cases": "≥ marks a high value that may be exact or a test limit, other limits are often not marked, values filed in µg/mL are converted to µM", "key": {"Bacillus subtilis 168": {"test_system": "Bacillus subtilis 168"}, "[1]": {"test_system": "Candida albicans ATCC 10231"}, "[2]": {"test_system": "Candida glabrata ATCC 2001"}, "[3]": {"test_system": "Candida tropicalis ATCC 13803"}, "[4]": {"test_system": "Escherichia coli ATCC 25922"}, "[5]": {"test_system": "Klebsiella pneumoniae ATCC 13883"}, "[6]": {"test_system": "Pseudomonas aeruginosa PAO1"}, "[7]": {"test_system": "Staphylococcus aureus MU50"}, "[8]": {"test_system": "Staphylococcus aureus Newman"}, "[9]": {"test_system": "Staphylococcus aureus UAMS-1"}, "[10]": {"test_system": "Staphylococcus aureus USA 200"}, "[11]": {"test_system": "Staphylococcus aureus USA 300"}, "[12]": {"test_system": "Staphylococcus aureus USA 400"}, "[13]": {"test_system": "Staphylococcus epidermidis 1457"}, "[14]": {"test_system": "Cryptococcus neoformans ATCC 32045"}, "[15]": {"test_system": "Escherichia coli ATCC 2592"}, "[16]": {"test_system": "Pseudomonas aeruginosa ATCC 10145"}, "[17]": {"test_system": "Staphylococcus aureus ATCC 33591"}, "[18]": {"test_system": "Acinetobacter baumannii MTCC 9829"}, "[19]": {"test_system": "Alcaligenes faecalis MTCC 1937"}, "[20]": {"test_system": "Alkalihalobacillus alcalophilus MTCC 860"}, "[21]": {"test_system": "Bordetella bronchiseptica MTCC 6837"}, "[22]": {"test_system": "Citrobacter freundii MTCC 1658"}, "[23]": {"test_system": "Citrobacter koseri MTCC 1657"}, "[24]": {"test_system": "Corynebacterium glutamicum MTCC 2679"}, "[25]": {"test_system": "Enterococcus faecalis MTCC 439"}, "[26]": {"test_system": "Escherichia coli K12 MG1655"}, "[27]": {"test_system": "Haemophilus influenzae MTCC 621"}, "[28]": {"test_system": "Klebsiella aerogenes MTCC 111"}, "[29]": {"test_system": "Klebsiella oxytoca MTCC 2275"}, "[30]": {"test_system": "Klebsiella pneumoniae MTCC 7407"}, "[31]": {"test_system": "Pluralibacter gergoviae MTCC 3826"}, "[32]": {"test_system": "Proteus mirabilis MTCC 3158"}, "[33]": {"test_system": "Proteus vulgaris MTCC 1771"}, "[34]": {"test_system": "Pseudomonas aeruginosa MTCC 3542"}, "[35]": {"test_system": "Salmonella enterica MTCC 9844"}, "[36]": {"test_system": "Salmonella enterica subsp. enterica serovar Typhimurium ATCC 14028"}, "[37]": {"test_system": "Shigella boydii MTCC 11947"}, "[38]": {"test_system": "Shigella flexneri MTCC 1457"}, "[39]": {"test_system": "Staphylococcus aureus MTCC 3160"}, "[40]": {"test_system": "Staphylococcus haemolyticus MTCC 3383"}, "[41]": {"test_system": "Stenotrophomonas maltophilia MTCC 1890"}, "[42]": {"test_system": "Vibrio cholerae MTCC 3904"}, "Escherichia coli J2210": {"test_system": "Escherichia coli J2210"}, "Escherichia coli JJ2487": {"test_system": "Escherichia coli JJ2487"}, "Escherichia coli JW0013": {"test_system": "Escherichia coli JW0013"}, "Escherichia coli MC1061": {"test_system": "Escherichia coli MC1061"}, "Escherichia coli O157:H7": {"test_system": "Escherichia coli O157:H7"}, "[43]": {"test_system": "Salmonella enterica subsp. enterica serovar Enteritidis MH91989"}, "[44]": {"test_system": "Salmonella typhimurium SL1344"}, "[45]": {"test_system": "Bacillus subtilis ATCC 6633"}, "[46]": {"test_system": "Salmonella enterica subsp. enterica serovar Enteritidis BNCC 103134"}, "[47]": {"test_system": "Staphylococcus aureus ATCC 25923"}}}
{"compound": "CC[C@H](C)[C@H](NC(=O)[C@H](C)NC(=O)[C@H](CO)NC(=O)[C@H](CC(C)C)NC(=O)[C@@H](N)Cc1ccccc1)C(=O)N[C@H](C(=O)N[C@@H](CO)C(=O)N[C@H](C(=O)N[C@@H](CC(C)C)C(=O)NCC(=O)N[C@@H](CCCCN)C(=O)N[C@@H](Cc1ccccc1)C(=O)N[C@@H](Cc1ccccc1)C(N)=O)[C@@H](C)CC)[C@@H](C)O", "note": "[FLSAITSILGKFF]", "values": [{"measurement": "MIC", "setting": "Bacillus subtilis 168", "result": 12.5, "unit": "µM"}, {"measurement": "MIC", "setting": "[1]", "result": 25, "unit": "µM"}, {"measurement": "MIC", "setting": "[2]", "result": 25, "unit": "µM"}, {"measurement": "MIC", "setting": "[3]", "result": 6.2, "unit": "µM"}, {"measurement": "MIC", "setting": "[4]", "result": "> 50", "unit": "µM"}, {"measurement": "MIC", "setting": "[5]", "result": "≥ 50", "unit": "µM"}, {"measurement": "MIC", "setting": "[6]", "result": "> 50", "unit": "µM"}, {"measurement": "MIC", "setting": "[7]", "result": 12.5, "unit": "µM"}, {"measurement": "MIC", "setting": "[8]", "result": 12.5, "unit": "µM"}, {"measurement": "MIC", "setting": "[9]", "result": 25, "unit": "µM"}, {"measurement": "MIC", "setting": "[10]", "result": 6.25, "unit": "µM"}, {"measurement": "MIC", "setting": "[11]", "result": 6.3, "unit": "µM"}, {"measurement": "MIC", "setting": "[12]", "result": 6.25, "unit": "µM"}, {"measurement": "MIC", "setting": "[13]", "result": 6.3, "unit": "µM"}]}
{"compound": "C[C@H](NC(=O)[C@H](Cc1ccccc1)NC(=O)[C@H](CCCCN)NC(=O)[C@H](CCCCN)NC(=O)[C@H](C)NC(=O)[C@H](Cc1ccccc1)NC(=O)[C@H](CCCCN)NC(=O)[C@H](CCCCN)NC(=O)[C@H](C)NC(=O)[C@H](Cc1ccccc1)NC(=O)[C@H](CCCCN)NC(=O)[C@H](CCCCN)NC(=O)[C@H](C)NC(=O)[C@H](Cc1ccccc1)NC(=O)[C@H](CCCCN)NC(=O)[C@H](CCCCN)NC(=O)[C@H](C)NC(=O)[C@H](Cc1ccccc1)NC(=O)[C@H](CCCCN)NC(=O)[C@H](CCCCN)NC(=O)[C@H](C)NC(=O)[C@H](Cc1ccccc1)NC(=O)[C@H](CCCCN)NC(=O)[C@H](CCCCN)NC(=O)[C@H](C)NC(=O)[C@H](Cc1ccccc1)NC(=O)[C@@H](N)CCCCN)C(=O)N[C@@H](CCCCN)C(=O)O", "note": "[KFAKKFAKKFAKKFAKKFAKKFAKKFAK]", "values": [{"measurement": "MIC", "setting": "[1]", "result": 33.5, "unit": "µM"}, {"measurement": "MIC", "setting": "[14]", "result": 13.3, "unit": "µM"}, {"measurement": "MIC", "setting": "[15]", "result": 13.3, "unit": "µM"}, {"measurement": "MIC", "setting": "[16]", "result": 4.79, "unit": "µM"}, {"measurement": "MIC", "setting": "[17]", "result": "≥ 74.8", "unit": "µM"}]}
{"compound": "CC(C)C[C@H](NC(=O)[C@H](CCCCN)NC(=O)[C@@H]1CCCN1C(=O)[C@H](CC(C)C)NC(=O)[C@H](CO)NC(=O)[C@H](CCCN=C(N)N)NC(=O)[C@H](C)NC(=O)[C@H](CCCCN)NC(=O)[C@H](CCCCN)NC(=O)[C@H](Cc1ccccc1)NC(=O)[C@H](Cc1ccccc1)NC(=O)[C@H](CCCCN)NC(=O)[C@H](CCCCN)NC(=O)[C@H](Cc1c[nH]c2ccccc12)NC(=O)[C@@H](N)CO)C(=O)N[C@@H](Cc1ccccc1)C(=O)O", "note": "[SWKKFFKKARSLPKLF]", "values": [{"measurement": "MIC", "setting": "[18]", "result": 1.99, "unit": "µM"}, {"measurement": "MIC", "setting": "[19]", "result": 31.8, "unit": "µM"}, {"measurement": "MIC", "setting": "[20]", "result": 15.9, "unit": "µM"}, {"measurement": "MIC", "setting": "[21]", "result": 0.497, "unit": "µM"}, {"measurement": "MIC", "setting": "[22]", "result": 15.9, "unit": "µM"}, {"measurement": "MIC", "setting": "[23]", "result": 3.98, "unit": "µM"}, {"measurement": "MIC", "setting": "[24]", "result": 0.994, "unit": "µM"}, {"measurement": "MIC", "setting": "[25]", "result": "≥ 63.6", "unit": "µM"}, {"measurement": "MIC", "setting": "[26]", "result": 1.99, "unit": "µM"}, {"measurement": "MIC", "setting": "[27]", "result": 0.994, "unit": "µM"}, {"measurement": "MIC", "setting": "[28]", "result": 7.95, "unit": "µM"}, {"measurement": "MIC", "setting": "[29]", "result": 7.95, "unit": "µM"}, {"measurement": "MIC", "setting": "[30]", "result": 15.9, "unit": "µM"}, {"measurement": "MIC", "setting": "[31]", "result": 31.8, "unit": "µM"}, {"measurement": "MIC", "setting": "[32]", "result": "≥ 63.6", "unit": "µM"}, {"measurement": "MIC", "setting": "[33]", "result": 7.95, "unit": "µM"}, {"measurement": "MIC", "setting": "[34]", "result": 15.9, "unit": "µM"}, {"measurement": "MIC", "setting": "[35]", "result": 3.98, "unit": "µM"}, {"measurement": "MIC", "setting": "[36]", "result": 3.98, "unit": "µM"}, {"measurement": "MIC", "setting": "[37]", "result": 0.994, "unit": "µM"}, {"measurement": "MIC", "setting": "[38]", "result": 1.99, "unit": "µM"}, {"measurement": "MIC", "setting": "[39]", "result": "≥ 63.6", "unit": "µM"}, {"measurement": "MIC", "setting": "[40]", "result": 3.98, "unit": "µM"}, {"measurement": "MIC", "setting": "[41]", "result": 7.95, "unit": "µM"}, {"measurement": "MIC", "setting": "[42]", "result": 31.8, "unit": "µM"}]}
{"compound": "CC[C@H](C)[C@H](NC(=O)[C@H](CCCN=C(N)N)NC(=O)[C@H](CCCN=C(N)N)NC(=O)[C@@H]1CCCN1C(=O)[C@@H]1CCCN1C(=O)[C@H](CCCN=C(N)N)NC(=O)[C@@H]1CCCN1C(=O)[C@H](CCCN=C(N)N)NC(=O)[C@@H]1CCCN1C(=O)[C@H](CCCCN)NC(=O)[C@H](Cc1ccc(O)cc1)NC(=O)[C@@H]1CCCN1C(=O)[C@@H]1CCCN1C(=O)[C@H](CCCCN)NC(=O)[C@H](CC(=O)O)NC(=O)[C@@H](N)C(C)C)C(=O)N[C@@H](Cc1ccc(O)cc1)C(=O)N[C@@H](CC(N)=O)C(=O)N[C@@H](CCCN=C(N)N)C(N)=O", "note": "[VDKPPYKPRPRPPRRIYNR]", "values": [{"measurement": "MIC", "setting": "Escherichia coli J2210", "result": 0.125, "unit": "µM"}, {"measurement": "MIC", "setting": "Escherichia coli JJ2487", "result": 0.328, "unit": "µM"}, {"measurement": "MIC", "setting": "Escherichia coli JW0013", "result": 0.249, "unit": "µM"}, {"measurement": "MIC", "setting": "Escherichia coli MC1061", "result": 0.0623, "unit": "µM"}, {"measurement": "MIC", "setting": "Escherichia coli O157:H7", "result": 0.998, "unit": "µM"}, {"measurement": "MIC", "setting": "[43]", "result": 0.249, "unit": "µM"}, {"measurement": "MIC", "setting": "[44]", "result": 0.249, "unit": "µM"}]}
{"compound": "C[C@@H](O)[C@H](NC(=O)[C@H](Cc1ccccc1)NC(=O)[C@H](CO)NC(=O)[C@@H](NC(=O)[C@@H]1CCCN1C(=O)[C@@H](N)Cc1c[nH]c2ccccc12)[C@@H](C)O)C(=O)O", "note": "[WPTSFT]", "values": [{"measurement": "MIC", "setting": "[45]", "result": "≥ 300", "unit": "µM"}, {"measurement": "MIC", "setting": "[4]", "result": 200, "unit": "µM"}, {"measurement": "MIC", "setting": "[46]", "result": "≥ 350", "unit": "µM"}, {"measurement": "MIC", "setting": "[47]", "result": 300, "unit": "µM"}]}
